Molecules are shown by their SMILES.

Data set [1] concerns the target Histamine H4 receptor (Homo sapiens, UniProt Q9H3N8). Description: Displacement of [3H]histamine from human recombinant histamine H4 receptor.
Data set [2] can be described thus: Dissociation constant, pKa of the compound by Analiza PRO analyzer based method. Type of data set: physicochemical.
Data set [3] can be described thus: Dissociation constant, pKa of the compound by potentiometric titration. Type of data set: physicochemical.

Histamine H4 receptor, sequence (Q9H3N8 whole entry): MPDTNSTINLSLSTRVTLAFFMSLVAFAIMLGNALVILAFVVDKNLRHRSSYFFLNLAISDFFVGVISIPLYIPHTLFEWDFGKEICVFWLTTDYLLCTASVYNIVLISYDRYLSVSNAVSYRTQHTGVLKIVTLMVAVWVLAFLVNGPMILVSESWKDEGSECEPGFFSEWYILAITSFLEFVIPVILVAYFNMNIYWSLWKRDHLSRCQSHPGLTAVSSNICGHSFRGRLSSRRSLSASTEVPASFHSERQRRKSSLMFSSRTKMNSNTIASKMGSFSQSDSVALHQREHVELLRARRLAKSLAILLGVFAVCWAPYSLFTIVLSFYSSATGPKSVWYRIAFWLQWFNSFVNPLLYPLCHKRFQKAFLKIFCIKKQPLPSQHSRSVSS

The Ki is the equilibrium dissociation constant of an inhibitor or competing ligand from its target. In general, pKa refers to the negative logarithm of the acid dissociation constant. Read a low pKa as a stronger acid or weaker base. With `CN[C@@H]1CCN(c2cc(CCl)nc(N)n2)C1`, in data set [1], the inhibitory constant (Ki) worked out at 0.092 µM. Also, in data set [2], the pKa was determined as 6.

For `Nc1cc(C2CCNCC2)cc(NC2CCCC2)n1`, the Ki in data set [1] turned out to be 0.05 µM. Also, the pKa in data set [2] was 6.1.

Regarding `CN[C@@H]1CCN(c2cc(N)nc(NC(C)C)c2)C1`, the Ki in data set [1] is 0.0031 µM. For the same molecule, the pKa in data set [2] was found to be 6.5.

Regarding `Nc1cc(N2CCNCC2)cc(NC2CCCC2)n1`, the Ki in data set [1] stood at 0.002 µM. Also, in data set [2], the pKa came to 6.5.

On to `Nc1nc(C2CCCC2)cc(C2CCNCC2)n1`, for which the inhibitory constant (Ki) in data set [1] came to 1.55 µM. The molecule further returned a pKa in data set [2] of 4.5.

Molecule `CN[C@@H]1CCN(c2ccnc(NC(C)C)c2)C1` gave a pKa in data set [2] of 6.6.

Regarding `Nc1nc(C2CCCC2)cc(N2CCNCC2)n1`, the pKa in data set [2] was determined as 7.9.

As to `Nc1nc(NC2CCCC2)cc(C2CCNCC2)n1`, the Ki in data set [1] was over 1 µM. In data set [2], this molecule gave a pKa of 6.1.

With `CN[C@@H]1CCN(c2cc(C(F)(F)F)nc(N)n2)C1`, the Ki in data set [1] was over 10 µM. Besides, the pKa in data set [3] and in data set [2] was 3.1 throughout.

For `CN[C@@H]1CCN(c2cc(C(F)F)nc(N)n2)C1`, in data set [1], the Ki was over 10 µM. In addition, in data set [2], the pKa worked out at 4.4.

On to `CCc1cc(N2CC[C@@H](NC)C2)nc(N)n1`, for which the pKa in data set [3] was found to be 7.5; in data set [2] it was 6.3.

Turning to `CN[C@@H]1CCN(c2ccnc(C(C)C)n2)C1`, the inhibition constant Ki in data set [1] is 0.46 µM. This molecule also registered a pKa in data set [2] of 6.5.

Take `CN[C@@H]1CCN(c2cc(N)nc(C(C)C)n2)C1`: the Ki in data set [1] amounted to 0.32 µM. The pKa in data set [2] is 6.3.

As for `CN[C@@H]1CCN(c2cc(N)nc(NC(C)C)n2)C1`, in data set [2], the pKa was determined as 6.3.

In the case of `CCc1cc(N2CC[C@@H](NC)C2)ncn1`, in data set [1], the Ki was 0.456 µM. Moreover, the pKa in data set [3] amounted to 5.9.

As for `CN[C@@H]1CCN(c2ccnc(NC(C)C)n2)C1`, in data set [2], the pKa is 6.4.

Consider `CN[C@@H]1CCN(c2cc(CF)nc(N)n2)C1`, for which the inhibition constant Ki in data set [1] was 0.126 µM. Also, the pKa in data set [2] was determined as 5.5.

With `CN[C@@H]1CCN(c2cc(CC(F)(F)F)nc(N)n2)C1`, in data set [1], the Ki was 0.011 µM. The same molecule yielded a pKa in data set [2] of 5.4.

Take `Nc1cc(C2CCNCC2)cc(OC2CCCC2)n1`: the Ki in data set [1] is over 10 µM. Further, the pKa in data set [2] turned out to be 4.7.

Take `CN[C@@H]1CCN(c2cc(CCC(F)(F)F)nc(N)n2)C1`: the pKa in data set [2] came out at 7.8.

The values are drawn from ChEMBL document CHEMBL3351441, “The effect of pK(a) on pyrimidine/pyridine-derived histamine H4 ligands” (Bioorg Med Chem Lett, 2014).
